Test results as given in PubChem BioAssay AID2060907 (Molecular Pharmacology Branch, DTP, NCI, 2025).

Tested on: 388556-164-R-J1-PDC complex spheroid viability
Experiment: Anticancer human tumor 388556-164-R-J1-PDC patient-derived colon adenocarcinoma cell line growth inhibition [RAS]
Conditions: for IC50: curve of first compound; for viability, T/C: stronger effect = lower value
In short: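 Tumour cells grown as complex spheroids with HUVEC endothelial cells and mesenchymal stem cells, treated with RAS pathway inhibitor combinations. Each agent spans half-log steps from near clinical Cmax, or 10 microM where Cmax is unknown.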
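Also: spheroids exposed to compound for 7 days before readout.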
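For viability, T/C in this document: 100% = DMSO vehicle control luminescence.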

SMILES: Cc1nc(N2CCC3(CC2)COC(C)C3N)c(CO)nc1Sc1ccnc(N)c1Cl (centres undefined) + CCn1c(-c2cc(N3CCN(C)CC3)cnc2C(C)OC)c2c3cc(ccc31)-c1csc(n1)CC(NC(=O)C1CC1C)C(=O)N1CCCC(N1)C(=O)OCC(C)(C)C2
- IC50 (second compound 0.000949 µM): 774 nM
- IC50 (second compound 0.003 µM): 694 nM
- IC50 (second compound 0.00949 µM): 233 nM
- IC50 (second compound 0.03 µM): 67.6 nM
- IC50 (second compound 0.0949 µM): < 31.6 nM
- IC50 (second compound 0.3 µM): < 31.6 nM
- viability, T/C (second compound 0.000949 µM, first compound 0.0316 µM): 84.3%
- viability, T/C (second compound 0.000949 µM, first compound 0.1 µM): 83.6%
- viability, T/C (second compound 0.000949 µM, first compound 0.316 µM): 60.2%
- viability, T/C (second compound 0.000949 µM, first compound 1 µM): 47.5%
- viability, T/C (second compound 0.000949 µM, first compound 3.16 µM): 43.1%
- viability, T/C (second compound 0.000949 µM, first compound 10 µM): 34.3%
- viability, T/C (second compound 0.003 µM, first compound 0.0316 µM): 81.2%
- viability, T/C (second compound 0.003 µM, first compound 0.1 µM): 70.3%
- viability, T/C (second compound 0.003 µM, first compound 0.316 µM): 57.7%
- viability, T/C (second compound 0.003 µM, first compound 1 µM): 45.8%
- viability, T/C (second compound 0.003 µM, first compound 3.16 µM): 39.2%
- viability, T/C (second compound 0.003 µM, first compound 10 µM): 32.8%
- viability, T/C (second compound 0.00949 µM, first compound 0.0316 µM): 68.7%
- viability, T/C (second compound 0.00949 µM, first compound 0.1 µM): 53.4%
- viability, T/C (second compound 0.00949 µM, first compound 0.316 µM): 52.5%
- viability, T/C (second compound 0.00949 µM, first compound 1 µM): 36.6%
- viability, T/C (second compound 0.00949 µM, first compound 3.16 µM): 35.1%
- viability, T/C (second compound 0.00949 µM, first compound 10 µM): 29.7%
- viability, T/C (second compound 0.03 µM, first compound 0.0316 µM): 56.7%
- viability, T/C (second compound 0.03 µM, first compound 0.1 µM): 45.6%
- viability, T/C (second compound 0.03 µM, first compound 0.316 µM): 39.2%
- viability, T/C (second compound 0.03 µM, first compound 1 µM): 33.4%
- viability, T/C (second compound 0.03 µM, first compound 3.16 µM): 29.9%
- viability, T/C (second compound 0.03 µM, first compound 10 µM): 23.5%
- viability, T/C (second compound 0.0949 µM, first compound 0.0316 µM): 40.6%
- viability, T/C (second compound 0.0949 µM, first compound 0.1 µM): 37.2%
- viability, T/C (second compound 0.0949 µM, first compound 0.316 µM): 30.9%
- viability, T/C (second compound 0.0949 µM, first compound 1 µM): 26.3%
- viability, T/C (second compound 0.0949 µM, first compound 3.16 µM): 25.9%
- viability, T/C (second compound 0.0949 µM, first compound 10 µM): 22.8%
- viability, T/C (second compound 0.3 µM, first compound 0.0316 µM): 28.8%
- viability, T/C (second compound 0.3 µM, first compound 0.1 µM): 30.6%
- viability, T/C (second compound 0.3 µM, first compound 0.316 µM): 25.4%
- viability, T/C (second compound 0.3 µM, first compound 1 µM): 25.7%
- viability, T/C (second compound 0.3 µM, first compound 3.16 µM): 24%
- viability, T/C (second compound 0.3 µM, first compound 10 µM): 20%

SMILES: CC1(O)CCCC1n1c(=O)c(C(F)F)cc2cnc(NC3CCN(S(C)(=O)=O)CC3)nc21 (centres undefined) + C#Cc1c(F)ccc2cc(O)cc(-c3ncc4c(N5CC6CCC(C5)N6)nc(OCC56CCCN5CC(F)C6)nc4c3F)c12
- IC50 (second compound 0.0316 µM): > 10000 nM
- IC50 (second compound 0.1 µM): > 10000 nM
- IC50 (second compound 0.316 µM): > 10000 nM
- IC50 (second compound 1 µM): 9420 nM
- IC50 (second compound 3.16 µM): 8920 nM
- IC50 (second compound 10 µM): 5280 nM
- viability, T/C (second compound 0.0316 µM, first compound 0.0316 µM): 99.9%
- viability, T/C (second compound 0.0316 µM, first compound 0.1 µM): 101%
- viability, T/C (second compound 0.0316 µM, first compound 0.316 µM): 97.3%
- viability, T/C (second compound 0.0316 µM, first compound 1 µM): 108%
- viability, T/C (second compound 0.0316 µM, first compound 3.16 µM): 111%
- viability, T/C (second compound 0.0316 µM, first compound 10 µM): 76.7%
- viability, T/C (second compound 0.1 µM, first compound 0.0316 µM): 108%
- viability, T/C (second compound 0.1 µM, first compound 0.1 µM): 103%
- viability, T/C (second compound 0.1 µM, first compound 0.316 µM): 99.4%
- viability, T/C (second compound 0.1 µM, first compound 1 µM): 97.3%
- viability, T/C (second compound 0.1 µM, first compound 3.16 µM): 104%
- viability, T/C (second compound 0.1 µM, first compound 10 µM): 77.2%
- viability, T/C (second compound 0.316 µM, first compound 0.0316 µM): 98.5%
- viability, T/C (second compound 0.316 µM, first compound 0.1 µM): 108%
- viability, T/C (second compound 0.316 µM, first compound 0.316 µM): 89.4%
- viability, T/C (second compound 0.316 µM, first compound 1 µM): 107%
- viability, T/C (second compound 0.316 µM, first compound 3.16 µM): 112%
- viability, T/C (second compound 0.316 µM, first compound 10 µM): 62.4%
- viability, T/C (second compound 1 µM, first compound 0.0316 µM): 92.5%
- viability, T/C (second compound 1 µM, first compound 0.1 µM): 99.1%
- viability, T/C (second compound 1 µM, first compound 0.316 µM): 77.4%
- viability, T/C (second compound 1 µM, first compound 1 µM): 94.8%
- viability, T/C (second compound 1 µM, first compound 3.16 µM): 97.4%
- viability, T/C (second compound 1 µM, first compound 10 µM): 47.6%
- viability, T/C (second compound 3.16 µM, first compound 0.0316 µM): 86.2%
- viability, T/C (second compound 3.16 µM, first compound 0.1 µM): 78.6%
- viability, T/C (second compound 3.16 µM, first compound 0.316 µM): 78.9%
- viability, T/C (second compound 3.16 µM, first compound 1 µM): 82.1%
- viability, T/C (second compound 3.16 µM, first compound 3.16 µM): 87.9%
- viability, T/C (second compound 3.16 µM, first compound 10 µM): 46.6%
- viability, T/C (second compound 10 µM, first compound 0.0316 µM): 69.8%
- viability, T/C (second compound 10 µM, first compound 0.1 µM): 72.6%
- viability, T/C (second compound 10 µM, first compound 0.316 µM): 74.8%
- viability, T/C (second compound 10 µM, first compound 1 µM): 76.2%
- viability, T/C (second compound 10 µM, first compound 3.16 µM): 56.3%
- viability, T/C (second compound 10 µM, first compound 10 µM): 42.1%
